The test system of data set [1] is H1299 cells. Nature of the data set: Real-time migration assay (RTCA DP Xcelligence), H1299. To be noted: Gas6-inducible H1299 cells. In kind it is cell-based, human. How it is done:
(§1) H1299 and MDA-MB-231 cells lines were seeded in complete medium and allowed to attain ˜80% confluence and then serum starved overnight in medium containing 0.5% FBS. The cells were then detached by Accutase (Sigma), counted and resuspended in serum-free RPMI-1640 medium. In the lower chamber of the CIM plate, 1×RPMI-1640 containing 10% FBS was added as a chemoattractant. In the top chamber, 50 μl of 1×RPMI-1640 was added to all wells. Both chambers were assembled, loaded in the Xcelligence system, and run for 30 min for equilibration or background readings. One hundred microliters of each cell line suspended in 1×RPMI-1640 (40,000 cells/100 μl)±Gas6±small molecule inhibitors then were added in triplicates in upper chamber wells. Readings for changes in the cell index (CI) were taken every 10 min for 24 h and migration was shown as a change in cell index versus time.

Data set [2] concerns Akt phosphorylation. As to the kind of experiment: Gas6-inducible Akt phosphorylation in Axl-positive cancer cell lines. Format: cell-based, human. Conditions: pre-treatment with 10 μM. On the procedure:
(§2) Stable hAxl/IFN-γR1 CHO reporter cell lines (containing human Axl extracellular domains and transmembrane and intracellular domains of human IFN-γR1) were serum starved for 5 hrs±small molecule inhibitors and then stimulated with human Gas6 conditioned media±small molecule inhibitors for 30 minutes. For H1299 human non-small cell lung carcinoma and MDA-MB-231 human breast adenocarcinoma cell lines, the cells were serum starved overnight±small molecule inhibitors and stimulated with human Gas6 conditioned media±small molecule inhibitors for 30 minutes. Whole cell lysates of hAxl/IFN-γR1, H1299 and MDA-MB-231 cells were prepared using HNTG buffer (20 mM HEPES, pH 7.5, 150 mM NaCl, 10% glycerol, 1% Triton X-100, 1 mM PMSF, 1 mM Na3VO4, 10 mM Na2MoO4, 1 mM EDTA, 10 mM NaF and 20 μg/mL aprotinin). The resulting lysates were resolved on SDS-PAGE gel and immunoblotted with respective antibodies.

Data set [3] deals with normal (non-cancerous) cells. Nature of the data set: Cytotoxicity assays using normal (non-cancerous) cells. In kind it is cell-based.
The target of data set [4] is T1, native Axl (Homo sapiens, UniProt P30530).
T1 construct: Gas6-inducible phosphorylation of native Axl (pAxl); endogenous in cells; host or cells: MDA-MB-231
T1 sequence (P30530 26-894): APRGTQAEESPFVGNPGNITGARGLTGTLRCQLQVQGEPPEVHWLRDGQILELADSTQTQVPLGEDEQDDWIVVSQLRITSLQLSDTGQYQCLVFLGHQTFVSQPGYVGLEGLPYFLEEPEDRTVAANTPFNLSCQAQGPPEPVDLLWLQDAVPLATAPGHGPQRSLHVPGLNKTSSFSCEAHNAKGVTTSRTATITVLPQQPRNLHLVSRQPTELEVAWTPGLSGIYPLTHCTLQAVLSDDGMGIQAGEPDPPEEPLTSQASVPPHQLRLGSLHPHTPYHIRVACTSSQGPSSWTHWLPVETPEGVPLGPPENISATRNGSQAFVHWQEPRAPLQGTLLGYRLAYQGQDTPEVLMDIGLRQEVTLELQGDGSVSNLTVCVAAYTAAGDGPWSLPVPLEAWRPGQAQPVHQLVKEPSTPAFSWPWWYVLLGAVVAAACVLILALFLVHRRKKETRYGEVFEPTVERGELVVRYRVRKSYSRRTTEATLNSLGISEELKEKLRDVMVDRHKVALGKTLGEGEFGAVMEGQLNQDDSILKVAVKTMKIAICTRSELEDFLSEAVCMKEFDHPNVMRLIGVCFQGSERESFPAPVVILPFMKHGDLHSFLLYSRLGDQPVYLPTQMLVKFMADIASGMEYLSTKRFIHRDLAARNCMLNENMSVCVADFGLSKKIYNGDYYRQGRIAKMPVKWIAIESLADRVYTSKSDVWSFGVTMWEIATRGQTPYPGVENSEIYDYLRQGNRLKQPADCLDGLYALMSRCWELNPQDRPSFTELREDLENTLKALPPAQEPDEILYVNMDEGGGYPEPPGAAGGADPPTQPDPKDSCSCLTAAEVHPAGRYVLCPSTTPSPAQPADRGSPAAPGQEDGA
As to the kind of experiment: Gas6-inducible phosphorylation of native Axl in H1299 cells (immunoblot). In kind it is cell-based. To be noted: H1299 lung cancer cell line, FIG. 5B. How it is done:
as §2
(§3) Immunoblot data were obtained within a linear range of exposure, and intensities were quantified by ImageJ. The levels of hAxl/IFN-γR1 cells lines activation were measured by pSTAT1 whereas the levels of H1299 and MDA-MB-231 cell lines activation were measured by pAxl signal intensities. Blots were normalized to intensities of respective β-actin or GAPDH protein loading controls. […]

The subject of data set [5] is MDA-MB-231 cells. Nature of the data set: Real-time migration assay (RTCA DP Xcelligence), MDA-MB-231. In kind it is cell-based, human. To be noted: Gas6-inducible MDA-MB-231 cells. On the procedure: as §1
Data set [6] has as its system H1299 cells. As to the kind of experiment: Colony forming assay, H1299. Format: cell-based, human. To be noted: H1299 cultured in the presence of Gas6. On the procedure: H1299 cells were plated in 6 well plates at a very low density (˜250 cells/well). Next day, the cells were treated with the SMIs at different concentrations. The cells were incubated with the drugs for 14 days. After 14 days, colonies were stained with 0.25% crystal violet in 95% ethanol. Colonies consisting of more than 50 cells were counted.

Data set [7] can be described thus: Toxicity and body weight in xenograft mice. Format: in vivo. To be noted: for body weights: 100 mg/kg, versus vehicle; for toxicity in cell culture or in vivo: up to highest dose tested 300 mg/kg IP. How it is done:
500,000 H1299 cells in 100 μl of PBS were injected subcutaneously into the right flank of 4-6 week NOD/SCIDg mice. Once tumors were palpable, the mice were randomized into 3 groups, each group had 6 mice: control mice were treated with vehicle (DMSO) intraperitoneally (IP) and the treatment groups with compound 1I (day 1, day 2, day 3 and day 4) or with compound 1Q (day 1, day 2, day 3, day 4, day 7 and day 8) at a dose of 100 mg/kg IP. Similar studies were conducted on compound 1Q dosed at 300 mg/kg in mice. Tumor size and body weights were measured three times a week and the tumor volume calculated.

Data set [8] deals with T1, native Axl. As to the kind of experiment: Gas6-inducible phosphorylation of native Axl in MDA-MB-231 cells (immunoblot). Format: cell-based. To be noted: MBA-MD-231 breast cancer cell line, FIG. 5A. On the procedure: as §2, §3

Structures are written as SMILES.

Consider `Cc1cc(CSc2ccccc2C(=O)NCCNc2ccc(C(F)(F)F)cc2[N+](=O)[O-])on1` [1Q], for which the “motility (real-time, cell index)” value in data set [1] and in data set [5] was “suppressed motility” each time. Moreover, the “Gas6-inducible Akt phosphorylation” value in data set [2] was “abrogated”. Also, in data set [3], the cellular toxicity entry was “no discernible cellular toxicity”. Further, the “inhibition of activation (phosphorylation) of Axl” value in data set [4] and in data set [8] was “potent inhibition” in each case. Moreover, the clonogenic growth entry in data set [6] is “suppressed clonogenic growth”. Besides, the body weights result in data set [7] is “not significantly different”. Besides, the “toxicity in cell culture or in vivo” value in data set [7] is “Neither compound 1I nor compound 1Q showed notable toxicity”.
`Cc1noc(C)c1CSc1ccccc1C(=O)N1CCN(c2cccc(C(F)(F)F)c2)CC1` [1I]: the “motility (real-time, cell index)” value in data set [1] and in data set [5] was “suppressed motility” each time. Also, the “Gas6-inducible Akt phosphorylation” value in data set [2] was “abrogated”. Also, the cellular toxicity result in data set [3] is recorded as “no discernible cellular toxicity”. Moreover, the “inhibition of activation (phosphorylation) of Axl” value in data set [4] and in data set [8] was “potent inhibition” each time. Also, the clonogenic growth result in data set [6] is “suppressed clonogenic growth”. Besides, the body weights result in data set [7] is reported as “not significantly different”. In data set [7], the “toxicity in cell culture or in vivo” value was “Neither compound 1I nor compound 1Q showed notable toxicity”.
